Here are results for one compound from publication PMC8592027, “Structure-Guided Design of D-Galactal Derivatives with High Affinity and Selectivity for the Galectin-8 N-Terminal Domain” (ACS Medicinal Chemistry Letters, 2021).

Data set [1] addresses T1, galectin-3 (Homo sapiens, UniProt P17931).
T1 construct: made in house
Briefly: Competitive fluorescence polarization assay, galectin-3. The data set is classed as binding. As to conditions: mean ± SEM of n = 4–8. As to the method: (§1) 1. Competitive fluorescence polarization experiments:
(§2) Human galectins -1, -3, -4N, -4C, -7, -8N, -9N, and -9C were expressed and purified as previously described 30,41. Fluorescence polarisation experiments were performed using the PHERAstar FS plat e reader (software version 2.10 R3), and the fluorescence anisotropy of fluorescein tagged probes was measured by excitation at 485 nm and emission at 520 nm. The specific conditions for galectins -1, -3, -4N, -4C, -7, -8N, -9N, and -9C were kept as report ed30,41,42. The synthesised compounds were dissolved in pure DMSO at 20 mM concentration and diluted in PBS to 3-6 different concentrations, and each concentration was tested in duplicate. The highest inhibitor concentrations tested were 1.5 mM. The
For orientation: Polarisation of emitted light reports the rotation of a fluorescent probe.

Data set [2] addresses T2, galectin-4N (N-terminal domain) (Homo sapiens, UniProt P56470).
T2 construct: galectins (N = N-terminal domain, C = C-terminal domain); made in house
T2 sequence (P56470 19-150 limits assumed): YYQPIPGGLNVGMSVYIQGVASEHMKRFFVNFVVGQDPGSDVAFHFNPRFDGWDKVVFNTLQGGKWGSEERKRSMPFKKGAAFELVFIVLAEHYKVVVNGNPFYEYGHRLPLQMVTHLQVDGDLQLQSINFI
Briefly: Competitive fluorescence polarization assay, galectin-4N. In kind it is binding. The note with it: mean ± SEM of n = 4–8. As to the method: as §1, §2

Data set [3] deals with T3, galectin-4C (C-terminal domain) (Homo sapiens, UniProt P56470).
T3 construct: galectins (N = N-terminal domain, C = C-terminal domain); made in house
T3 sequence (P56470 194-323 limits assumed): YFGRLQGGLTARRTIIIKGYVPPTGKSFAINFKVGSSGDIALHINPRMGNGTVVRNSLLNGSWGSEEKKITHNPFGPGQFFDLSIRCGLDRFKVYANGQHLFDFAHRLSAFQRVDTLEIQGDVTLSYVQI
Briefly: Competitive fluorescence polarization assay, galectin-4C. In kind it is binding. As to conditions: mean ± SEM of n = 4–8. As to the method:
as §1, §2

For data set [4], the target named is T4, galectin-8N (galectin-8 N-terminal domain) (Homo sapiens, UniProt O00214).
T4 construct: selective ligand for the galectin-8 N-terminal domain (galectin-8N); made in house
T4 sequence (O00214 19-152 limits assumed): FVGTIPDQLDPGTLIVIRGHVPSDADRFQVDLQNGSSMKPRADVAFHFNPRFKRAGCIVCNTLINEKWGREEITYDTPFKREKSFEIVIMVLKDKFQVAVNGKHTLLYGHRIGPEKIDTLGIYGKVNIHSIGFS
Briefly: Competitive fluorescence polarization assay, galectin-8N. The data set is classed as binding. The procedure: All synthesized D-galactal derivatives had higher binding affinities for galectin-8N than D-galactal 3.
as §1, §2

Data set [5] deals with T5, galectin-8C (C-terminal domain) (Homo sapiens, UniProt O00214).
T5 construct: galectins (N = N-terminal domain, C = C-terminal domain)
T5 sequence (O00214 187-317 limits assumed): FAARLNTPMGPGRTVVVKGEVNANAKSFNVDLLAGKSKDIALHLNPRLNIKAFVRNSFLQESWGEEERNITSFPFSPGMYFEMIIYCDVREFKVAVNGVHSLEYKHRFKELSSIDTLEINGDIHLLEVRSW
Briefly: Competitive fluorescence polarization assay, galectin-8C. In kind it is binding. The note with it: mean ± SEM of n = 4–8.

For data set [6], the target named is T6, galectin-9N (N-terminal domain) (Homo sapiens, UniProt O00182).
T6 construct: galectins (N = N-terminal domain, C = C-terminal domain); made in house
T6 sequence (O00182 17-148 limits assumed): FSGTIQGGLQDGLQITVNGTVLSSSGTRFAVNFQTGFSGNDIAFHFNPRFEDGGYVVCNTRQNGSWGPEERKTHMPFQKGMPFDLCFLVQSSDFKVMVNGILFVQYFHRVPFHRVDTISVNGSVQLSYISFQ
Briefly: Competitive fluorescence polarization assay, galectin-9N. In kind it is binding. The note with it: mean ± SEM of n = 4–8. As to the method:
as §1, §2

The target in data set [7] is T7, galectin-9C (C-terminal domain) (Homo sapiens, UniProt O00182).
T7 construct: galectins (N = N-terminal domain, C = C-terminal domain); made in house
T7 sequence (O00182 227-355 limits assumed): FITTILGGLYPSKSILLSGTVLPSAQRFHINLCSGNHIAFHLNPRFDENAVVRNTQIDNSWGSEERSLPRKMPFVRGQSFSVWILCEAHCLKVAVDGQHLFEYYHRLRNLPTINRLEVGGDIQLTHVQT
Briefly: Competitive fluorescence polarization assay, galectin-9C. As to conditions: mean ± SEM of n = 4–8. In kind it is binding. The procedure: as §1, §2

Data set [8] relates to human peripheral blood mononuclear cells (PBMCs). Briefly: MTS metabolic activity (cytotoxicity) assay, PBMCs. The data set is classed as cell-based. As to conditions: concentrations up to 100 μM, 24 hours. The procedure: We have investigated the cytotoxicity of the compounds 1, 6a, and 6c via a (3-(4,5-dimethylthiazol-2-yl)-5-(3-carboxymethoxyphenyl)-2-(4-sulfophenyl)-2H-tetrazolium) (MTS) assay in K562 and MDA-MB-231 cancer cell lines to establish the direct antitumor activity of compounds, as well as human peripheral blood mononuclear cells (PBMCs), to evaluate their safety.
Metabolic activity assay:
The metabolic activities of the cell lines were determined using the CellTiter 96 Aqueous One Solution cell proliferation assay (MTS Reagents, Promega, Madison, WI, USA), according to the manufacturer instructions. Briefly, the cells were treated with the selected compounds in 0.1% dimethyl sulfoxide (DMSO; vehicle), 0.1% DMSO (control vehicle), or medium (control) and seeded at a cell density of 5,500 cells/well (MDA-MB-231 cells) or 4 x 10^4 cells/well (K562 cells), 7000 cells/well (HepG2 cells) or 1 x 10^5 cells/well (human PBMCs) in duplicates (MDA-MB-231, K562, and […]) or triplicates for HepG2 cells (100 µL), in sterile 96-well plates. For the MDA-MB-231 and HepG2, the cells were left to adhere overnight before adding the compounds. The plates were then incubated for 24 hours (48 hours for HepG2), after which 15 µL of MTS reagent was added to each well. After 30-90 minute of incubation, the absorbance was measured at 492 nm using a microplate reader (Synergy HTX Multi-Mode; BioTek Instruments, Inc., VT, USA). […]
Bead Array Human inflammatory cytokine Kit (content: IL-1, IL-6, IL-8, IL-10, IL-12p). The flow cytometric analyses were performed on an Attune NxT flow cytometer (Thermo Fisher Scientific, […]
Data are represented as means ± standard deviation (SD) from three representative independent experiments.
All experiments were performed at least twice, with average values expressed as means ± SD. All data were analyzed with the statistical software GraphPad Prism 8.0 (GraphPad Software, Inc., CA, USA). by one-way ANOVA followed with Dunnett’s multiple compar ison test. Differences were considered non-significant for p > 0.05, and significant (*) for p < 0.05. […]

T1 sequence (P17931 whole entry): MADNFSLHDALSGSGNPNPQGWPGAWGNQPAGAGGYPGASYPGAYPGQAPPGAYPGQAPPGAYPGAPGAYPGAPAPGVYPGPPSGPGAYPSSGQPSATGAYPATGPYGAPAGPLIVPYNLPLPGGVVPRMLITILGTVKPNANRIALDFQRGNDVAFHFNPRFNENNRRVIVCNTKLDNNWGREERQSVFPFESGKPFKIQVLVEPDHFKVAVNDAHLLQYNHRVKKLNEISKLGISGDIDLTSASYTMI

With `Cn1c(CO[C@@H]2C=CO[C@H](CO)[C@@H]2O)nc2ccc(C(=O)O)cc21` [6a], the Kd (commonly the free concentration of one partner at which half of the binding sites on the other are occupied at equilibrium, for simple one-to-one binding) was determined as 690 ± 30 µM in data set [1]; 1400 ± 30 µM in data set [2]; 1700 ± 150 µM in data set [3]; 48 ± 4 µM in data set [4] (mean ± SEM of n = 4–8); 4000 ± 500 µM in data set [5]; 1400 ± 57 µM in data set [6]. The compound also registered a Kd in data set [7] of more than 1500 µM. For the same compound, the “selectivity for galectin-8N over galectin-1” value in data set [4] (ratio of Kd values) is 27 fold. Moreover, the “selectivity for galectin-8N over galectin-3” value in data set [4] (ratio of Kd values) turned out to be 15 fold. For the same compound, the “direct cytotoxicity (MTS), PBMCs” value in data set [8] is given as “lack of direct cytotoxicity”.
